Data as given in patent US20060275800A1, “Process for characterization of the transactivation and transrepression activity of glucocorticoid receptor ligands in primary immune cells” (priority 2005, published 2006).

Assays:
[1] = test system: TNF-α; experiment: In vitro mRNA expression of TNF-α (transrepression parameter) in unstimulated human PBMC cultures; format: cell-based; conditions: for Transrepression vs. Prednisolone TNF-α: mRNA, PBMC cultures, prednisolone/GR ligand quotient; for suppression of the mRNA expression of TNF-α (in words): human PBMC cultures, single substance
From the text: (§1) Regarding the definition of suitable parameters, the regulation, mediated by standard glucocorticoids and selective GR ligands, of more than 50 genes in primary human immune cells was examined in a broad screening approach. Selected genes were further characterized in vitro and in vivo in kinetic experiments. […] Decisive criteria for the parameter selection were 1) the consistent reflection of transactivation or transrepression properties of GR ligands, 2) the detection of the regulation in non-stimulated immune cells, and 3) the quick reaction of the gene expression in in vitro assays (the 4-hour time period was used for the screening), and the good and enduring detectability after in vivo application of GR ligands. These properties make it likely that a direct regulation of the gene expression by the GR ligands will take place and that the parameters will be usable in in vivo studies (e.g., as biomarkers).
(§2) To have a comparison with a standard GK, the GR-ligand-influenced gene expressions for these parameters were normalized to the gene expression after treatment with the standard GK, prednisolone. […] It is clear to one skilled in the art that the normalization could also in principle be related to any other glucocorticoid.
(§3) For gene suppression, the “prednisolone/GR ligand” quotient was derived for purposes of normalization, i.e., a lower value (<1) indicates a relatively weaker suppression by the GR ligands (higher values in the residual gene expression).
(§4) For the mRNA detection, the total RNA was isolated from the respective samples (human PBMC or human whole blood or spleen cells from mice), transcribed in the cDNA and amplified and detected below by means of Real-time TaqMan-PCR (Applied Biosystems). A relative quantification in comparison to the expression of the “house-keeping” gene HPRT was carried out. In each case, the ratio of the result for the GR ligands to the result of the vehicle control is plotted.

[2] = test system: FKBP51; experiment: In vitro mRNA expression of FKBP51 (transactivation parameter) in unstimulated human PBMC cultures; format: cell-based; conditions: for Transactivation vs. Prednisolone FKBP51: mRNA, PBMC cultures, GR-ligand/prednisolone quotient
From the text: as §1, §2, §3, §4

[3] = test system: CD163; experiment: In vitro mRNA expression of CD163 (transactivation parameter) in unstimulated human PBMC cultures; format: cell-based; conditions: for Transactivation vs. Prednisolone CD163: mRNA, PBMC cultures, GR-ligand/prednisolone quotient; for induction of CD163 (in words): single substance
From the text: as §1, §2, §3, §4

[4] = test system: IL-1β; experiment: In vitro mRNA expression of IL-1β (transrepression parameter) in unstimulated human PBMC cultures; format: cell-based; conditions: for Transrepression vs. Prednisolone IL-1β: mRNA, PBMC cultures, prednisolone/GR ligand quotient; for suppression of the mRNA expression of IL-1β (in words): human PBMC cultures, single substance
From the text: as §1, §2, §3, §4

[5] = test system: CD163; experiment: Time-dependent CD163 mRNA expression in human whole-blood cultures; format: cell-based
Protocol: as §4
(§5) For the parameters CD163 and FKBP51, in addition, the time-dependent influence of CR ligands on the mRNA expression in human whole-blood cultures was examined.

[6] = test system: FKBP51; experiment: Time-dependent FKBP51 mRNA expression in human whole-blood cultures; format: cell-based
Protocol: as §4, §5

[7] = test system: transrepression (TNF-α and IL-1β) and transactivation (CD163 and FKBP51); experiment: Transrepression/transactivation ratio (dissociation factor) in human PBMC cultures; format: cell-based; conditions: PBMC cultures, 1, 2, 4, 12 and 24 hours
From the text: As parameters that could [make] reference to the mechanism of the transrepression, TNF-α and IL-1β were selected. CD163 and FKBP51 are used to detect the transactivation activity.
Below, a ratio between the transrepression and transactivation parameters that are normalized to prednisolone was derived according to formula 2: [formula]
The factors for the transactivation and transrepression activity were averaged geometrically and put into a ratio with one another. […] The higher the ratio, the more dissociated the GR ligand is in comparison to prednisolone (ratio=1). [drawing]
Figure: Ratios for Visualization of the In Vitro Dissociation of the GR Ligands in Comparison to Prednisolone in PBMC Cultures (n—3) after 1, 2, 4, 12 and 24 Hours.
The ratios were calculated after the normalization of the gene expression values to prednisolone from the quotient of the geometric means of the parameters for transrepression (TNF-α and IL-1β) and for transactivation (CD163 and FKBP51). Mean values±SD.

[8] = test system: tyrosinaminotransferase (TAT); experiment: Induction of tyrosinaminotransferase (TAT) activity in rat hepatoma cells (H4IIE3); format: cell-based; conditions: for effectiveness, induction of the TAT activity, % of the maximum dexamethasone effect / EC50: agonism, n=2; for EC50: read-out: power, induction of the TAT activity
Protocol: In a second transactivation system, the induction of the tyrosinaminotransferase (TAT) by glucocorticoids is determined. In the promoter of the gene for the TAT, GREs are also located, so that this gene is expressed in an enhanced form by binding of the ligand-activated GR. To this end, rat hepatoma cells (H4IIE3) are treated for 24 hours with test and reference substances, and then the TAT activity is determined by photometry. For the two assays, both the detection of agonistic actions of the SEGRA substances in the transactivation and the detection of antagonistic actions in the induction of the parameters by other GR ligands are possible.
(§6) The activities of SEGRA substances in the respective transactivation and transrepression systems are determined in comparison to the activities of the reference substance dexamethasone.

[9] = test system: glutamine synthetase; experiment: In vivo expression of glutamine synthetase in spleen cells of treated mice; conditions: after 24 hours
Protocol: as §4
(§7) The in vivo regulation of the expression of selected genes was characterized in the spleen cells of SEGRA-treated mice after 24 hours.

[10] = test system: transactivation parameters; experiment: Gene induction in human PBMC (transactivation profile); format: cell-based; conditions: mRNA
Protocol: as §4
Below, by way of example, the application of the characterization of the transactivation and transrepression activity of selective GR ligands by means of gene expression analysis in primary immune cells is shown comparatively based on two SEGRA substances, the agonist in the transactivation, compound 1, and the antagonist in the transactivation, compound 2. The molecular mechanism of these substances had been previously characterized in the usual assays (see 5.2 and 5.3). The gene expression analysis was performed by means of quantitative Real-Time-TaqMan-PCR. The ratios (mean value±standard deviation) of the results for the GR ligands to the results for the vehicle control are shown.
In contrast to this, the different transactivation profile of the SEGRA substances is reflected in differing degrees of gene induction.

[11] = test system: GILZ; experiment: In vivo expression of GILZ in spleen cells of treated mice; conditions: after 24 hours
Protocol: as §4, §7

[12] = test system: MMTV promoter; experiment: MMTV promoter luciferase transactivation assay in HeLa cells; format: cell-based, human
From the text: The promoter of the mouse mammary tumor virus (MMTV) contains specific binding sites for the activated GR (so-called GREs). This promoter was cloned before a reporter gene (luciferase), and the construct was integrated in a stable manner in the genome of the human cell line HeLa (cervix carcinoma cells). By adding test and reference substances, the MMTV promoter is activated, and the luciferase, whose activity can be detected by means of photometric measurement, is expressed.
as §6

[13] = test system: FKBP51; experiment: In vivo expression of FKBP51 in spleen cells of treated mice; conditions: after 24 hours
Protocol: as §4, §7

[14] = test system: CD163; experiment: In vivo expression of CD163 in spleen cells of treated mice; conditions: after 24 hours
Protocol: as §4, §7

[15] = test system: inflammatory cytokines; experiment: In vivo expression of inflammatory cytokines in spleen cells of treated mice; conditions: after 24 hours, vs vehicle control
Protocol: as §4, §7

[16] = human PBMC cultures, antagonism

Structure (SMILES)	Transrepression vs. Prednisolone TNF-α ([1]; 1 hour)	Transrepression vs. Prednisolone TNF-α ([1]; 2 hours)	Transrepression vs. Prednisolone TNF-α ([1]; 4 hours)	Transrepression vs. Prednisolone TNF-α ([1]; 12 hours)	Transrepression vs. Prednisolone TNF-α ([1]; 24 hours)	Transactivation vs. Prednisolone FKBP51 ([2]; 1 hour)	Transactivation vs. Prednisolone FKBP51 ([2]; 2 hours)	Transactivation vs. Prednisolone FKBP51 ([2]; 4 hours)	Transactivation vs. Prednisolone FKBP51 ([2]; 12 hours)	Transactivation vs. Prednisolone FKBP51 ([2]; 24 hours)	Transactivation vs. Prednisolone CD163 ([3]; 1 hour)	Transactivation vs. Prednisolone CD163 ([3]; 2 hours)	Transactivation vs. Prednisolone CD163 ([3]; 4 hours)	Transactivation vs. Prednisolone CD163 ([3]; 12 hours)	Transactivation vs. Prednisolone CD163 ([3]; 24 hours)	Transrepression vs. Prednisolone IL-1β ([4]; 1 hour)	Transrepression vs. Prednisolone IL-1β ([4]; 2 hours)	Transrepression vs. Prednisolone IL-1β ([4]; 4 hours)	time-dependent influence on CD163 mRNA expression [5]	time-dependent influence on FKBP51 mRNA expression [6]	further results
C[C@@H]1C[C@H]2[C@@H]3CCC4=CC(=O)C=C[C@]4(C)[C@@]3(F)[C@@H](O)C[C@]2(C)[C@@]1(O)C(=O)CO [Dexamethasone, dexamethasone]	0.80	0.85	1.01	1.00	0.97	0.89	1.13	1.08	1.07	1.05	1.02	1.89	1.34	1.13	1.04	0.61	0.69	1.27	–	–	Transrepression vs. Prednisolone IL-1β ([4]; 12 hours): 0.96; Transrepression vs. Prednisolone IL-1β ([4]; 24 hours): 1.16
C[C@]12C=CC(=O)C=C1CC[C@@H]1[C@@H]2[C@@H](O)C[C@@]2(C)[C@H]1CC[C@]2(O)C(=O)CO [Prednisolone, prednisolone]	1.00	1.00	1.00	1.00	1.00	1.00	1.00	1.00	1.00	1.00	1.00	1.00	1.00	1.00	1.00	1.00	1.00	1.00	induced the expression of these genes permanently	induced the expression of these genes permanently	suppression of the mRNA expression of TNF-α (in words) [1]: suppression; induction of FKBP51 (in words) ([2]; human PBMC cultures, single substance): induced; induction of CD163 (in words) ([3]; human PBMC cultures): induced; dissociation factor (transrepression/transactivation ratio vs prednisolone) [7]: largely comparable; suppression of the mRNA expression of IL-1β (in words) [4]: suppression; Transrepression vs. Prednisolone IL-1β ([4]; 12 hours): 1.00; Transrepression vs. Prednisolone IL-1β ([4]; 24 hours): 1.00
Cc1noc(=O)c2ccc(NC(=O)C(O)(CC(C)(C)c3cccc4c3OCO4)C(F)(F)F)cc12 (centres unmarked) [compound 1]	–	–	–	–	–	–	–	–	–	–	–	–	–	–	–	–	–	–	induced the expression of these genes permanently	induced the expression of these genes permanently	effectiveness, induction of the TAT activity, % of the maximum dexamethasone effect ([8]; rat hepatoma cells): 86±12.7%; EC50 ([8]; rat hepatoma cells): 5.7 ± 0.6 nM; expression of glutamine synthetase [9]: clear induction; gene induction [10]: clearly induces; expression of GILZ [11]: clear induction; antagonistic effect in the MMTV promoter assay (in words) [12]: antagonistic effect neither; EC50 ([12]; Homo sapiens, agonism, n=2, read-out: power, induction of the activity of the MMTV promoter): 10 ± 1.4 nM; effectiveness, induction of the MMTV promoter, % of the maximum dexamethasone effect ([12]; agonism, n=2): 73±2.8%; expression of FKBP51 [13]: clear induction; expression of CD163 [14]: clear induction
Cc1noc(=O)c2ccc(NC(=O)C(O)(CC(C)(C)c3cc(F)ccc3C(F)(F)F)C(F)(F)F)cc12 (centres unmarked) [compound 2]	–	–	–	–	–	–	–	–	–	–	–	–	–	–	–	–	–	–	did not lead to the increase of the gene expression	did not lead to the increase of the gene expression	Emax ([8]; Rattus norvegicus, at a concentration of 1 μmol, read-out: antagonism of the dexamethasone-induced TAT activity, % of the maximum effect of RU 486): 35%; effectiveness, induction of the TAT activity, % of the maximum dexamethasone effect ([8]; rat hepatoma cells): 43.5±10.6%; EC50 ([8]; rat hepatoma cells): 67 ± 10 nM; behaviour in the TAT promoter (in words) ([8]; rat hepatoma cells): partial agonist; suppression of the mRNA expression of TNF-α (in words) [1]: suppression; expression of glutamine synthetase [9]: reduces the expression; gene induction [10]: lower gene induction or no gene induction; induction of FKBP51 on simultaneous administration with prednisolone, in comparison to prednisolone alone [2, 16]: clearly lower; expression of GILZ [11]: reduces the expression; CD163 expression in all batches ([3]; human PBMC cultures, alone and with prednisolone): reduced; induction of CD163 on simultaneous administration with prednisolone, in comparison to prednisolone alone [3, 16]: clearly lower; induction of CD163 (in words) ([3]; human PBMC cultures): not; antagonistic effect in the MMTV promoter assay (in words) [12]: clear antagonist; IC50 ([12]; Homo sapiens, antagonism, n=3, read-out: power, antagonism of the MMTV promoter activity induced by dexamethasone): 85 ± 12 nM; effectiveness, antagonism of dexamethasone-induced MMTV promoter activity, % of the maximum effect of the GR antagonist RU 486 ([12]; antagonism, n=3): 119±3.6%; expression of FKBP51 [13]: reduces the expression; inhibition of the inflammatory cytokines (transrepression) [15]: less pronounced; expression of CD163 [14]: reduces the expression; suppression of the mRNA expression of IL-1β (in words) [4]: suppression
